Values quoted from earlier work in patent US20170027865A1, “Dry Pharmaceutical Compositions for Topical Delivery of Oral Medications, Nasal Delivery and to Treat Ear Disorders” (CMPD LICENSING LLC, priority 2013, published 2017).
Read-outs that look alike come from different tables or passages of the source.

Legend:
[1] = test system: Bacteroides fragilis; details: Gram: anaer
[2] = test system: Clostridium difficile; details: Gram: anaer
[3] = test system: Clostridium perfringens
[4] = test system: Chlamydia pneumoniae; details: Gram: n/a
[5] = test system: Chlamydia psittaci
[6] = test system: Chlamydia trachomatis; details: Gram: n/a
[7] = test system: Mycoplasma pneumoniae; details: Gram: n/a
[8] = test system: Acinetobacter baumannii; details: Gram: neg
[9] = test system: Acinetobacter calcoaceticus; details: Gram: neg
[10] = test system: Acinetobacter lwoffii; details: Gram: neg
[11] = test system: Bordetella pertussis; details: Gram: neg
[12] = test system: Campylobacter jejuni; details: Gram: neg
[13] = test system: Citrobacter diversus; details: Gram: neg
[14] = test system: Citrobacter freundii; details: Gram: neg
[15] = test system: Enterobacter aerogenes; details: Gram: neg
[16] = test system: Enterobacter cloacae; details: Gram: neg
[17] = test system: Enterobacter sakazakii; details: Gram: neg
[18] = test system: Escherichia coli; details: Gram: neg
[19] = test system: Francisella tularensis
[20] = test system: Haemophilus ducreyi; details: Gram: neg
[21] = test system: Haemophilus influenzae; details: Gram: neg
[22] = test system: Haemophilus parainfluenzae; details: Gram: neg
[23] = test system: Klebsiella (Calymmatobacterium) granulomatis; details: Gram: neg
[24] = test system: Klebsiella oxytoca; details: Gram: neg
[25] = test system: Klebsiella pneumoniae; details: Gram: neg
[26] = test system: Legionella pneumophila
[27] = test system: Moraxella catarrhalis; details: Gram: neg
[28] = test system: Morganella morganii; details: Gram: neg
[29] = test system: Neisseria gonorrhoeae; details: Gram: neg
[30] = test system: Neisseria meningitidis; details: Gram: neg
[31] = test system: Proteus mirabilis; details: Gram: neg
[32] = test system: Proteus vulgaris; details: Gram: neg
[33] = test system: Providencia rettgeri; details: Gram: neg
[34] = test system: Providencia stuartii; details: Gram: neg
[35] = test system: Pseudomonas aeruginosa; details: Gram: neg
[36] = test system: Rickettsiae
[37] = test system: Salmonella typhi; details: Gram: neg
[38] = test system: Serratia marcescens; details: Gram: neg
[39] = test system: Shigella boydii; details: Gram: neg
[40] = test system: Shigella dysenteriae; details: Gram: neg
[41] = test system: Shigella flexneri; details: Gram: neg
[42] = test system: Shigella sonnei; details: Gram: neg
[43] = test system: Vibrio cholerae; details: Gram: neg
[44] = test system: Yersinia pestis
[45] = test system: Corynebacterium jeikeium; details: Gram: pos
[46] = test system: Corynebacterium urealyticum; details: Gram: pos
[47] = test system: Diphtheroids; details: Gram: pos
[48] = test system: Enterococcus faecalis; details: Gram: pos
[49] = test system: Enterococcus faecium; details: Gram: pos
[50] = test system: Methicillin Resistant Staph aureus (MRSA); details: Gram: pos
[51] = test system: Peptostreptococcus; details: Gram: pos
[52] = test system: Staphylococcus aureus (MSSA); details: Gram: pos
[53] = test system: Staphylococcus epidermidis; details: Gram: pos
[54] = test system: Streptococcus agalactiae; details: Gram: pos
[55] = test system: Streptococcus pneumoniae; details: Gram: pos
[56] = test system: Streptococcus pyogenes; details: Gram: pos
[57] = test system: Viridans group streptococci; details: Gram: pos
[58] = test system: Bartonella bacilliformis; details: Gram: neg
[59] = test system: Brucella species
[60] = test system: Pseudomonas fluorescens; details: Gram: neg

In the case of CO/N=C(\C(=O)N[C@@H]1C(=O)N2C(C(=O)O)=C(CSc3nc(=O)c(=O)[nH]n3C)CS[C@H]12)c1csc(N)n1 [Ceftriaxone, ceftriaxone], the Expected coverage [1] is listed as “yes”, the Expected coverage [2] is listed as “no” and the Expected coverage ([3]; Clostridium perfringens, Gram: anaer) is listed as “yes”. For the same molecule, the Expected coverage [4] was “no”, the Expected coverage ([5]; Chlamydia psittaci, Gram: n/a) was “no” and the Expected coverage [6] was “no”. For the same molecule, the Expected coverage [7] was “no”, the Expected coverage [8] was “no” and the Expected coverage [9] was “no”. For the same molecule, the Expected coverage [10] was “no”, the Expected coverage [11] was “no” and the Expected coverage [12] was “no”. For the same molecule, the Expected coverage [13] was “yes”, the Expected coverage [14] was “yes” and the Expected coverage [15] was “yes”. For the same molecule, the Expected coverage [16] was “yes”, the Expected coverage [17] was “yes” and the Expected coverage [18] was “yes”. For the same molecule, the Expected coverage ([19]; Francisella tularensis, Gram: neg) was “no”, the Expected coverage [20] was “yes” and the Expected coverage [21] was “yes”. For the same molecule, the Expected coverage [22] was “yes”, the Expected coverage [23] was “yes” and the Expected coverage [24] was “yes”. The Expected coverage [25] was “yes”, the Expected coverage ([26]; Legionella pneumophila, Gram: neg) was “no” and the Expected coverage [27] was “yes”. For the same molecule, the Expected coverage [28] was “yes”, the Expected coverage [29] was “yes” and the Expected coverage [30] was “yes”. For the same molecule, the Expected coverage [31] was “yes”, the Expected coverage [32] was “yes” and the Expected coverage [33] was “yes”. The Expected coverage [34] was “yes”, the Expected coverage [35] was “no” and the Expected coverage ([36]; Rickettsiae, Gram: neg) was “no”. The Expected coverage [37] was “yes”, the Expected coverage [38] was “yes” and the Expected coverage [39] was “yes”. The Expected coverage [40] was “yes”, the Expected coverage [41] was “yes” and the Expected coverage [42] was “yes”. The Expected coverage [43] was “no”, the Expected coverage ([44]; Yersinia pestis, Gram: neg) was “no” and the Expected coverage [45] was “no”. The Expected coverage [46] was “no”, the Expected coverage [47] was “no” and the Expected coverage [48] was “no”. The Expected coverage [49] was “no”, the Expected coverage [50] was “no” and the Expected coverage [51] was “yes”. The Expected coverage [52] was “yes”, the Expected coverage [53] was “yes” and the Expected coverage [54] was “yes”. The Expected coverage [55] was “yes”, the Expected coverage [56] was “yes” and the Expected coverage [57] was “yes”.
For CN[C@H](CC(C)C)C(=O)N[C@H]1C(=O)N[C@@H](CC(N)=O)C(=O)N[C@H]2C(=O)N[C@H]3C(=O)N[C@H](C(=O)N[C@H](C(=O)O)c4cc(O)cc(O)c4-c4cc3ccc4O)[C@H](O)c3ccc(c(Cl)c3)Oc3cc2cc(c3O[C@@H]2O[C@H](CO)[C@@H](O)[C@H](O)[C@H]2O[C@H]2C[C@](C)(N)[C@H](O)[C@H](C)O2)Oc2ccc(cc2Cl)[C@H]1O [Vancomycin, vancomycin], the Expected coverage [1] is listed as “no”, the Expected coverage [2] is listed as “yes” and the Expected coverage [3] is listed as “no”. For the same molecule, the Expected coverage [4] was “no”, the Expected coverage [5] was “no” and the Expected coverage [6] was “no”. For the same molecule, the Expected coverage [7] was “no”, the Expected coverage [8] was “no” and the Expected coverage [9] was “no”. For the same molecule, the Expected coverage [10] was “no”, the Expected coverage [58] was “no” and the Expected coverage [11] was “no”. The Expected coverage [59] was “no”, the Expected coverage [12] was “no” and the Expected coverage [13] was “no”. For the same molecule, the Expected coverage [14] was “no”, the Expected coverage [15] was “no” and the Expected coverage [16] was “no”. The Expected coverage [17] was “no”, the Expected coverage [18] was “no” and the Expected coverage [19] was “no”. The Expected coverage [20] was “no”, the Expected coverage [21] was “no” and the Expected coverage [22] was “no”. For the same molecule, the Expected coverage [23] was “no”, the Expected coverage [24] was “no” and the Expected coverage [25] was “no”. The Expected coverage [26] was “no”, the Expected coverage [27] was “no” and the Expected coverage [28] was “no”. The Expected coverage [29] was “no”, the Expected coverage [30] was “no” and the Expected coverage [31] was “no”. The Expected coverage [32] was “no”, the Expected coverage [33] was “no” and the Expected coverage [34] was “no”. For the same molecule, the Expected coverage [35] was “no”, the Expected coverage [60] was “no” and the Expected coverage [36] was “no”. For the same molecule, the Expected coverage [37] was “no”, the Expected coverage [38] was “no” and the Expected coverage [39] was “no”. The Expected coverage [40] was “no”, the Expected coverage [41] was “no” and the Expected coverage [42] was “no”. The Expected coverage [43] was “no”, the Expected coverage [44] was “no” and the Expected coverage [45] was “yes”. The Expected coverage [46] was “yes”, the Expected coverage [47] was “yes” and the Expected coverage [48] was “yes”. For the same molecule, the Expected coverage [50] was “yes”, the Expected coverage [51] was “yes” and the Expected coverage [52] was “yes”. The Expected coverage [53] was “yes”, the Expected coverage [54] was “yes” and the Expected coverage [55] was “yes”. For the same molecule, the Expected coverage [56] was “yes” and the Expected coverage [57] was “yes”.
